Data as given in patent US20230138400A1, “METHODS AND PHARMACEUTICAL COMPOSITIONS FOR REPROGRAMING IMMUNE ENVIRONMENT IN A SUBJECT IN NEED THEREOF” (INSERM (INSTITUT NATIONAL DE LA SANTE ET DE LA RECHERCHE …, priority 2016, published 2023).

Key:
[1] = test system: Unpolarized Th0 (from naive CD4 T cells of C57BL/6 mice); assay: Unpolarized Th0 cells cultured with DDA, flow cytometry; format: cell-based, mouse
Procedure: FIGS. 3A-D. Unpolarized Th0 (prepared from naive CD4 T cells isolated from the spleen of C57BL/6 mice were cultivated in presence of anti-CD3, anti-CD28 and recombinant IL-2 as indicated in the “Materials and methods” section”) and with gradual concentration of DDA added at day 0 of culture (condition #1) or Day 4 of culture (condition #2). At the end, for each condition, the percentage of Th1 (CD4+Tbet+IFNg+) (A,B) and Treg CD4+Foxp3+IL10+ (C,D) was measured by flow cytometry.
Immune cell culture. Isolated CD4+ or CD8+ T cells were cultures in 96-well flat bottom plates (0.25×10^6 cells per wells) in 0.25 ml of complete RPMI 1640 media (10% FBS, 1% penicillin/Streptomycin, 1% sodium pyruvate, 1% HEPES and 50 μM b-mercaptoethanol) in the presence of 10 μg/ml plate-bound anti-mouse CD3 (2C11) and 2 μg/ml soluble α-CD28 (LEAF) in addition to 50 ng/ml of recombinant IL-2 (e-bioscience). DDA (synthesized by Affichem) diluted in the solvent vehicle was added at increasing concentration (0-1-10-100 and 1000 nM). […] After 5 days of culture, cells were collected and analyzed by flow cytometry. To investigate the impact of DDA on polarization of CD4 or CD8 naive T cells, DDA or the solvent vehicle was added at the beginning of culture at Day 0 or at Day 4 and cells was analyzed at day 5 by flow cytometry.

[2] = test system: SKMEL-28 cells; assay: Composition of exosomes from SKMEL-28 cells (shCTRL or shLXRbeta) treated with DDA; format: cell-based, human
Procedure: Exosome characterization. By flow cytometry: (tetraspanin analysis), exosomes (10 μg) were bound onto 10 μl of latex beads (Interfacial Dynamics/Invitrogen) in 200 μl PBS for 1 hour at 25° C. with gentle periodical shaking. Free sites on latex beads were saturated with 100 μl vesicle-free FBS for 30 min at 25° C. Beads with bound exosomes were centrifuged for 5 min at 5000 rpm, washed in 200 μl PBS, and diluted in 100 μl FACS buffer. Specific primary antibody or control isotype (1:50) were added and incubated at room temperature for 30 min. After centrifugation and washing, secondary antibody (1:100) was added and incubated for 30 min at room temperature. Beads with bound antibody-labelled exosomes were diluted in 1 ml FACS buffer and analyzed by flow cytometry (FACScalibur, Becton-Dickinson). By western-blot analysis: 5-20 μg exosomes were directly diluted in sample buffer and denaturated by heating at 60° C. for 10 min. Equal amounts of proteins were deposited in each well and proteins were resolved in SDS-PAGE and transferred onto PVDF membranes, saturated with 5% w/v non-fat milk in TBS-Tween 0.1%. […] Revelation from immunoblotting was performed by enhanced chemiluminescence and analysed by ChemiDoc imager (BioRad) or by Pxi imager (Ozyme). By sucrose gradient: the density of exosomes was measured through a sucrose gradient. […]

## CC(C)CCCC(C)[C@H]1CCC2C3C[C@@H](NCCc4cnc[nH]4)[C@@]4(O)C[C@@H](O)CC[C@]4(C)C3CC[C@@]21C (stereo partly shown) [DDA, 5a-hydroxy-6b-[2-(1H-imidazol-4-yl)ethylamino]cholestan-3b-ol]
[1]; unpolarized Th0, DDA at day 0 or day 4 (FIG. 3)
  Th0 into Th1 differentiation: does not activated
[1]; unpolarized Th0, DDA at day 0 or day 4, more impressive at day 4 (FIG. 3)
  differentiation of Th0 into Treg phenotype: inhibits
[2]; exosomes from SKMEL-28-shCTRL cells
  exosome content of rab27a and b, HSP70, Melan A, tyrosinase, TRP2, calreticuline: enriched
[2]; exosomes from SKMEL-28-shLXRbeta cells
  exosome content of rab27a and b, HSP70, Melan A, tyrosinase, TRP2, calreticuline: not enriched
